Assay results: paper PMC8001472, “Novel Selective IDO1 Inhibitors with Isoxazolo[5,4-d]pyrimidin-4(5H)-one Scaffold” (Pharmaceuticals, 2021)

Molecular target: T1, hIDO2 (Homo sapiens, UniProt Q6ZQW0)
T1 construct: purchased Vinci-Biochem
T1 sequence (Q6ZQW0 1-407): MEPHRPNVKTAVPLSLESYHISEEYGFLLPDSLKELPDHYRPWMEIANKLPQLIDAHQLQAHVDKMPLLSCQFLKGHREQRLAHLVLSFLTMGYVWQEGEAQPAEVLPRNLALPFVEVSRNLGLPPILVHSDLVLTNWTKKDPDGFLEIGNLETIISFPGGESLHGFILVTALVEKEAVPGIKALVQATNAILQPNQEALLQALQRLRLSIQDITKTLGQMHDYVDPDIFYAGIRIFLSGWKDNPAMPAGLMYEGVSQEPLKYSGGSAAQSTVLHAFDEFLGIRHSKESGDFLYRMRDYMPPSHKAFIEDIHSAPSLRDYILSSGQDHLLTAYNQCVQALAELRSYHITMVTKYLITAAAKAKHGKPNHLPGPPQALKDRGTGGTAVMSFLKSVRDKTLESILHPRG
Assay: hIDO2 inhibitory potency evaluation (fluorescence assay)
Type: biochemical
Procedure: Additionally, to determine IDO1 selectivity, all final compounds were assayed for their inhibitory potencies towards hIDO2 and hTDO. For this purpose, two new protocols were developed based on the published fluorescence assay for hIDO1 [25]. Sodium ascorbate, methylene blue, and bovine catalase were used in the same concentrations as for hIDO1. 50 mM phosphate buffers with pH values of 7.5 and 7.0 were used for hIDO2 and hTDO, respectively, as has been already mentioned before. First, the activities of hIDO2 and hTDO were determined at four different concentrations. […] Additionally, the effect of DMSO concentration on enzyme activity was investigated. […] The optimal hIDO2 and hTDO assay concentrations of the substrate L-Trp were determined to be 4 mM and 500 μM, respectively.
Activity of the compounds on hIDO2 was determined according to the previously reported fluorescence protocol for hIDO1 [25] and reported absorbance protocols for hIDO2 [30, 36] with several modifications. Recombinant hIDO2 was purchased from Vinci-Biochem (Vinci-Biochem, Srl, Vinci, Italy), bovine catalase was purchased from Sigma-Aldrich (Sigma-Aldrich, St. Louis, MO, USA). Prior to the measurement of activity for compounds, the enzyme activity was determined and optimal assay enzyme concentration was selected. The amounts of reagents needed to perform the assay were optimized. Briefly, the reagents needed were dissolved in 50 mM potassium phosphate buffer (pH 7.5, 0.01%, v/v Tween 20), the reaction was performed in black 384-well microplates. After the addition of 1 μL of 100 mM sodium ascorbate neutralized with an equimolar amount of 1M NaOH, 1 μL of 100 μM methylene blue, 1 μL of 1 mg/mL bovine catalase, 0.5 μL of DMSO (negative control) or solution of a compound in DMSO, 5 μL of […] hIDO2 and 1.5 μL of 26.7 mM L-Trp were added and the microplate was incubated for 60 min at 37 °C. The reaction was quenched with the addition of 10 μL of 400 mM piperidine solution in MilliQ water and the formation of the examined fluorophore began following incubation at 65 °C for 20 min. The production of NFK-derived fluorophore (λEX = 400 nm, λEM = 500 nm) was measured using a microplate reader (Synergy H4; BioTek Instruments, Inc., Winooski, VT, USA) after 60 min post-incubation at room temperature. In the preliminary testing compounds were tested at 100 μM with activities determined as residual activities—RA, which were calculated to% of inhibition, presented in Table 1 and Table 2. (% of inhibition = 100% − RA). All determinations were carried out in duplicates.

hIDO2 inhibition (in words): no activity
Structure (SMILES): O=C(Cn1cnc2onc(-c3ccc(F)cc3)c2c1=O)Nc1ccc(C(F)(F)F)cc1 [Compound 23]
